According to patent publication US7169592B2, “Producing optically active amino compounds” (Kaneka Corporation, priority 1997, dated 2007):
Where “and” joins values, the source holds several entries; their conditions need not be identical. Equal entries are not always repeated. Where two headings read alike, the source gives them in different places. Marks after values point to notes of the source that are not given here.

Tests used:
[1] = system: benzylamine transaminase of Okada et al.; conditions: without addition = 100, cited from earlier work
[2] = system: Transaminase of Present Invention (purified enzyme); assay: Influence of reaction inhibitors on purified transaminase; type: biochemical, Arthrobacter sp. KNK168; conditions: for Relative activity with inhibitor: inhibitor 1 mM, without addition = 100
Excerpt: (§1) The differences with the ω-amino acid transaminase derived from Pseudomonas sp. F-1 (Agric. Biol. Chem., 42, 2363–2367 (1978), Agric. Biol. Chem., 43, 1043–1048 (1979), J. Biol. Chem., 258, 2260–2265 (1983)) which have been well studied among the ω-amino acid transaminases, and with the benzylamine transaminase of Okada et al. (Japanese Patent Laid-Open No. Hei 6-178685) are summarized and shown in Table 2. In a case of the transaminase reaction in the present invention, the data of the purified enzyme are used, and in cases of those by other two enzymes, the data of the purified enzymes which are disclosed in each of the literature publication and laid-open patent publication are used. Pyruvic acid is used as an amino group acceptor in all cases.

[3] = system: Arthrobacter species KNK168 strain; assay: Inducer added during culture; (R)-DMA formation by the separated cells; type: cell-based; conditions: substance added to medium as inducer; reaction 30° C., 20 hours, 1% 1-(3,4-dimethoxyphenyl)-2-propanone, 1% (RS)-1-methylpropylamine
Procedure: When culturing the Arthrobacter species KNK168 strain by the method described in Example 1, (RS)-1-methylpropylamine, (RS)-1-methylbutylamine, (RS)-3-amino-2,2-dimethylbutane, (RS)-2-amino-1-butanol, or (RS)-1-phenylethylamine was added to the medium in place of (R)-1-(3,4-dimethoxyphenyl)-2-aminopropane ((R)-DMA). The cells were separated from the culture, and the reaction was carried out at 30° C. for 20 hours using the above cells in a reaction mixture containing 1% 1-(3,4-dimethoxyphenyl)-2-propanone and 1% (RS)-1-methylpropylamine.

[4] = system: Arthrobacter species KNK168 strain; assay: Amino group donors in whole-cell transamination of 1-(3,4-dimethoxyphenyl)-2-propanone; type: cell-based; conditions: for (R)-DMA Formed: 1% amino group donor, 1% 1-(3,4-dimethoxyphenyl)-2-propanone, 0.1% Triton X-100, pH 8.5, 35° C., 20 hours; for Function as amino group donor (in words): whole cells
Procedure: The cultured cells were harvested by centrifugation, and the harvested cells were suspended in a reaction mixture (pH 8.5) containing 1% 1-(3,4-dimethoxyphenyl)-2-propanone, 0.1% Triton X-100, and 1% an amino group donor shown in Table 5. The mixture was reacted at 35° C. for 20 hours.

[5] = system: Transaminase of Present Invention (purified enzyme); assay: Reactivity of purified transaminase to amino compounds (amino group donors) with pyruvic acid as acceptor; type: biochemical, Arthrobacter sp. KNK168; set-up: Substrate Specificity, relative activity: concentration or dose not given beside the values; conditions: for Relative Activity: amino compound 40 mM in substrate solution, pyruvic acid acceptor, pH 8.3, 30° C., 1 hour, (R)-1-phenylethylamine = 100; for Substrate Specificity, relative activity: purified enzyme, pyruvic acid as amino group acceptor
Excerpt: as §1
Using the purified enzyme protein obtained in Example 9, reactivities to various amino compounds when using pyruvic acid as an amino acceptor were evaluated. A 150 μl solution of the purified enzyme protein solution diluted ten-folds was added to a 150 μl substrate solution [0.1 M potassium phosphate buffer (pH 8.3), 40 mM pyruvic acid, 0.1 mM pyridoxal phosphate, and 40 mM various amino compounds]. The components were reacted at 30° C. for 1 hour. The reaction tube was transferred into boiling water to stop the reaction, and thereafter, a part of the reaction mixture was diluted five-folds. Ten μl 0.1 M boric acid buffer (pH 8.0) and a 20 μl ethanol solution of 80 mM 4-fluoro-7-nitro-2,1,3-benzoxadiazole (NBD-F) were added to the 10 μl above-mentioned diluted reaction mixture. The resulting mixture was reacted at 60° C. for 1 minute, and thereafter, the resulting mixture was ice-cooled, and 460 μl 5 mM HCl was added thereto. This reaction mixture was analyzed by high-performance liquid chromatography using a fine pack C18-5 column (manufactured by Nippon Bunko) I and using 0.1 M potassium phosphate buffer (pH 6.5) and CH3CN (90:10) as an eluent to detect formation of NBD-Alanine with an excitation wavelength of 470 nm and a detection wave of […]. The results thereof are shown in Table 8 in terms of relative activity in the case of using […] as a substrate.

[6] = system: benzylamine transaminase of Okada et al.; conditions: cited from earlier work; for Substrate Specificity, relative activity: purified enzyme, laid-open patent publication, pyruvic acid as amino group acceptor
[7] = target: T1, ω-amino acid transaminase (Pseudomonas putida, UniProt P28269); conditions: purified enzyme, literature; pyruvic acid as amino group acceptor; cited from earlier work
T1 sequence (P28269 1-449): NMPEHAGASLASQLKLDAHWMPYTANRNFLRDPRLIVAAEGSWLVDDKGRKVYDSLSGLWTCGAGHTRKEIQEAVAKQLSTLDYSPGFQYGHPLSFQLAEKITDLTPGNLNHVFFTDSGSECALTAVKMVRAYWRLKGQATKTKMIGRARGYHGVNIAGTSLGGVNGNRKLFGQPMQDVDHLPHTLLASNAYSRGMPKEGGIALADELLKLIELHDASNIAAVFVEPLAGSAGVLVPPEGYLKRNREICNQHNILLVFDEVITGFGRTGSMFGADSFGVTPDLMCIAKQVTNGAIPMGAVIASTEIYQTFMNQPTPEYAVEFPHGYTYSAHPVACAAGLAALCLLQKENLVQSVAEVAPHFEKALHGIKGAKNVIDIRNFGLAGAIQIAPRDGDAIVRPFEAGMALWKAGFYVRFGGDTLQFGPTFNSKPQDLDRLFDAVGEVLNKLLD

[8] = system: Transaminase of Present Invention; assay: Usability as amino group donor, transaminase of present invention; type: biochemical, Arthrobacter
Excerpt: Further, the transaminase derived from Arthrobacter which can be used in the present invention is different from the above-mentioned enzyme derived from Brevibacterium in many other aspects.

[9] = target: T1, ω-amino acid transaminase; conditions: inhibitor 1 mM; without addition = 100; cited from earlier work
[10] = system: transaminase (intracellular enzyme); assay: Activity of the transaminase (intracellular enzyme) on typical substrates of ω-aminotransferases; type: biochemical, Arthrobacter sp. KNK168
[11] = amino group acceptor 2-ketoglutaric acid, (R)-1-phenylethylamine/pyruvic acid = 100 (control)

SMILES: O=S(=O)([O-])[O-].[Cu+2] [CuSO4]
- Relative activity with inhibitor ([1]; inhibitor 0.5 mM): 5%
- Relative activity with inhibitor [2]: 44%

SMILES: CCCC(C)N (racemic) [(RS)-1-Methylbutylamine]
- (R)-DMA Formed [3]: 13.0%
- (R)-DMA Formed [4]: 54.7% and 56.9%
- Function as amino group donor (in words) [4]: functioned as amino group donors

SMILES: NNc1ccccc1 [Phenylhydrazine]
- Relative activity with inhibitor ([1]; inhibitor 1 mM): 27%
- Influence of reaction inhibitor on the transaminase (in words) [2]: affected only a little
- Relative activity with inhibitor [2]: 82%

SMILES: NCc1ccccc1 [Benzylamine]
- Relative Activity [5]: 0.8%
- Substrate Specificity, relative activity [5]: 0.8%
- Action of benzylamine transaminase on the substance (in words) ([6]; in the presence of pyruvic acid): strongly acts on
- Substrate Specificity, relative activity [6]: 100%
- Substrate Specificity, relative activity [7]: 45%

SMILES: N[C@@H](CC(=O)O)C(=O)O [aspartic acid]
- Amino Group Donor (usable or not) [8]: cannot be used as an amino group donor

SMILES: CC(C)(S)[C@@H](N)C(=O)O [D-Penicillamine]
- Relative activity with inhibitor ([1]; inhibitor 1 mM): 0%
- Relative activity with inhibitor [2]: 93%

SMILES: CCC(C)N (racemic) [(RS)-1-Methylpropylamine]
- (R)-DMA Formed [3]: 22.3%
- (R)-DMA Formed [4]: 28.2%
- Function as amino group donor (in words) [4]: functioned as amino group donors

SMILES: NCCc1ccccc1 [β-Phenethylamine]
- Substrate Specificity, relative activity [5]: 0%
- Substrate Specificity, relative activity [6]: 9%
- Substrate Specificity, relative activity [7]: 54%

SMILES: CC(N)c1ccccc1 (racemic) [(RS)-1-Phenylethylamine]
- (R)-DMA Formed [3]: 8.0%
- (R)-DMA Formed [4]: 61.3%
- Function as amino group donor (in words) [4]: functioned as amino group donors

SMILES: COc1ccc(C[C@@H](C)N)cc1OC [(R)-DMA, (R)-1-(3,4-dimethoxyphenyl)-2-aminopropane]
- (R)-DMA Formed [3]: 0.9%
- Relative Activity [5]: 30%

SMILES: N[C@@H](CCC(=O)O)C(=O)O [glutamic acid]
- Amino Group Donor (usable or not) [8]: cannot be used as an amino group donor

SMILES: CCC(N)CO (racemic) [(RS)-2-Amino-1-butanol]
- (R)-DMA Formed [3]: 12.9%

SMILES: NO [Hydroxylamine]
- Relative activity with inhibitor ([1]; inhibitor 0.1 mM): 30%
- Relative activity with inhibitor [9]: 0%
- Influence of reaction inhibitor on the transaminase (in words) [2]: affected only a little
- Relative activity with inhibitor [2]: 17%

SMILES: NCCCCN [Putrescine]
- Action of the transaminase on the substance (in words) [5]: does not act on
- Substrate Specificity, relative activity [5]: 0%
- Relative Activity [10, 11]: 0%
- Substrate Specificity, relative activity [6]: 0%
- Substrate Specificity, relative activity [7]: 55%

SMILES: CCCCN [n-Butylamine]
- Action of the transaminase on the substance (in words) [5]: does not act on
- Substrate Specificity, relative activity [5]: 0%
- Substrate Specificity, relative activity [6]: 0%
- Substrate Specificity, relative activity [7]: 60%

SMILES: Cl.N [ammonium chloride]
- Amino Group Donor (usable or not) [8]: cannot be used as an amino group donor

SMILES: O=C(O)c1cc[c]([Hg][Cl])cc1 [p-Chloromercuribenzoic acid]
- Relative activity with inhibitor ([1]; inhibitor 0.1 mM): 9%
- Relative activity with inhibitor [9]: 100%
- Relative activity with inhibitor [2]: 53%

SMILES: NCCCC(=O)O [4-Aminobutyric acid]
- Action of the transaminase on the substance (in words) [5]: does not act on
- Substrate Specificity, relative activity [5]: 0%
- Relative Activity [10, 11]: 0%
- Substrate Specificity, relative activity [7]: 40%

SMILES: NCCC(=O)O [β-Alanine]
- Action of the transaminase on the substance (in words) [5]: does not act on
- Substrate Specificity, relative activity [5]: 0* %
- Activity on the substance as amino group donor (in words) [10]: does not act on
- Relative Activity ([10]; amino group acceptor pyruvic acid, (R)-1-phenylethylamine = 100 (control)): 0%
- Substrate Specificity, relative activity [6]: 0* %
- Substrate Specificity, relative activity [7]: 100* %

SMILES: CC(N)C(C)(C)C (racemic) [(RS)-3-Amino-2,2-dimethylbutane]
- (R)-DMA Formed [3]: 18.6%
